Measured values: US6376175B1, “Methods of discovering chemicals capable of functioning as gene expression modulators” (OSI Pharmaceuticals, Inc., priority 1989, dated 2002)

Assays:
[1] = tested on: endogenous G-CSF mRNA; test: Northern blot of endogenous G-CSF mRNA in 5637 cells; format: cell-based, human; conditions: compared to solvent DMSO, normalized with beta-actin probe
Method: Total cellular RNA was isolated from the G21 cell clone or from untransfected 5637 cells following incubation for 6 hours with various transcriptionally modulating chemicals identified in the high-throughput screen. Cells were grown in serum free medium as described above. Total cellular RNA was isolated using the RNAZol method (CINNA/BIOTECX, Friendswood, Tex., Laboratories International, Inc.). Cells were resuspended and lysed with RNAZol solution (1.5 ml/9 cm petri dish) and the RNA was solubilized by passing the lysate a few times through a pipette. Chloroform was added to the homogenate (0.1 ml/1 ml), and samples were shaken for 15 seconds followed by a 5 minutes incubatoin on ice. After centrifuging for 10 minutes, the upper phase was collected and an equal volume of isopropanol was added. Samples were incubated for 45 minutes at −20 C, and the RNA was pelleted for 15 minutes at 12,000×g at 4 C. The RNA pellet was then washed with 70% ethanol and dried briefly under vacuum.
Total cellular RNA was isolated from 5637 cells following incubation with chemicals as described above and electrophoresed in a 1% Agarose-[…] Formaldehyde gel. The RNA was transferred to Duralon-UV nylon filters (Stratagene, La Jolla, Calif.) using the manufacturer's recommended protocol. The filters were prehybridized for 4 hours (prehybridizing solution=5X SSC, 50 mM sodium pyrophosphate, 10X Denhardt's solution, 10% dextran sulfate, 7% and 250 µg/ml denatured ssDNA) and then hybridized in the same solution for 16 hours at 65 C in the presence of G-CSF or Beta-Actin (Oncor, Gaithersburg, Md.) specific probes. The G-CSF probe was a 0.6 kb AflII o Xhol fragment which contained most of exon 5 of the human G-CSF gene. The B-actin probe was used as a control probe to normalize for the total amount of RNA. […] Bands were excised and counted in a liquid scintillation counter (LKB, Gaithersburg, Md.), and counts obtained with the G-CSF specific probe were normalized relative to the counts obtained with the B-Actin specific probe. […]

[2] = tested on: G-CSF mRNA; test: S1 nuclease protection, G-CSF mRNA in 5637 cells; format: cell-based, human; conditions: 18 hours, 542 (10, 50, 250 microM), 1255 (20, 100, 500 microM), 1793 (0.25, 1.2, 6.25 microM), 1904 (20, 100 microM)
Method: (§1) S1 Nuclease protection assays were carried out as described in reference 94.
(§2) To further confirm, that compounds that had been identified in a luciferase expression assay using a G-CSF specific reporter cell line would be active in inducing transcription of the endogenous G-CSF gene, cells from the parental cell line 5637 used to construct the reporter cell line were incubated with cycloheximide (25 microg/ml), DMSO (0.5%, solvent control) and low, medium and high concentrations of the compounds 542 (10, 50, 250 microM),1255 (20, 100, 500 microM), 1793(0.25, 1.2, 6.25 microM) and 1904 (20, 100 microM) for 18 hours. RNA was extracted and the concentration of G-CSF, GM-CSF and gamma-actin mRNA was determined by the S1 protection method as described in Materials and Methods. The positions of G-CSF GM-CSF and gamma-actin specific protected fragments are indicated (G, GM, A) at the left side of the gel (FIG. 54).

[3] = tested on: GM-CSF mRNA; test: S1 nuclease protection, GM-CSF mRNA in 5637 cells; format: cell-based, human; conditions: 18 hours, low, medium and high concentrations
Method: as §1, §2

[4] = tested on: secreted G-CSF protein; test: Two-antibody sandwich immunoassay of G-CSF secreted by 5637 bladder carcinoma cells; format: cell-based, human; conditions: 5637 cells, 48 hours, serum-containing media; TNF-alpha 5 ng/ml; #542 50 uM; #1780 1 uM and 0.2 uM; FIG. 55
Method: Supernatants from 5637 bladder carcinoma cells incubated with chemicals registering as positives in the G-CSF promoter/luciferase High-Throughput assay were assayed for secreted G-CSF protein using the two-antibody sandwich immunoassay (96). The G-CSF Assay kit manufactured by Oncogene Science, Inc. was used and the manufacturer's instructions were followed.
The levels of G-CSF in the cell supernatants were determined by a sandwich-antibody assay as described in Materials and Methods (FIG. 55).

[5] = tested on: FRE cells; format: cell-based
Method: To determine cytotoxic concentrations of chemicals registering as positives in the High-Throughput luciferase assay the MTT cytotoxicity assay was employed (95). In this assay, a tetrazolium salt [3-(4,5-dimethylthiazol-2-yl)-2,5-diphenyl-tetrazolium bromide, MTT] is reduced to a colored formazan product by reducing enzymes present only in living metabolically active cells.
Cells were seeded into 96 well microtiterplates (20 000 cells/well) and cultured overnight. Compound #542 was added at various concentrations and the cells were incubated for 6 hours. Luciferase activity was determined as described in Materials and Methods. The MTT-colorimetric assay was carried out on identically treated samples of FRE cells. Induction of luciferase reporter signal (plain line) and on inhibition of respiration (dashed line) are plotted versus the concentrations of compound (FIG. 56). The ED50 for induction of luciferase activity differed from the ED50 for inhibition of respiration by a factor of almost 10, which might indicate that compound #542 exerts a specific effect on G- and GM-CSF transcription.

Molecule | endogenous G-CSF mRNA production (Northern blot) [1] | amount of G-CSF mRNA (S1 protection) [2] | amount of GM-CSF mRNA (S1 protection) [3] | also measured
Clc1cc(Cl)cc(Br)c1 [Chemical 1255, 1-Bromo-3,5-dichlorobenzene] | stimulated production of G-CSF mRNA | increased mRNA production |  | 
CN(C)c1ccc(C(=C2C=CC(=[N+](C)C)C=C2)c2ccc([N+](C)(C)C)cc2)cc1.[Cl-].[Cl-] [Chemical 670, Methyl Green] | stimulated production of G-CSF mRNA |  |  | 
Cl.Nc1c2ccccc2nc2ccccc12 [Chemical 1904, 9-Aminoacridine hydrochloride] |  | increased mRNA production |  | 
Nc1nc(=O)n([C@H]2C[C@H](O)[C@@H](CO)O2)cc1Br [Chemical 542, 5-Bromo-2′-deoxycytidine] |  | increased mRNA production | increased the amount of GM-CSF mRNA | G-CSF secretion into media [4]: increased G-CSF secretion; factor between ED50 for induction of luciferase activity (G21) and ED50 for inhibition of respiration (FRE cells) [5]: ~10
CN(C)C(=S)SCC#N [Chemical 1793, Cyanomethyl-N,N-dimethyl dithiocarbomate] |  | increased mRNA production | increased the amount of GM-CSF mRNA | 
CN(C)c1ccc(C(=C2C=CC(=[N+](C)C)C=C2)c2ccc(N(C)C)cc2)cc1 [Chemical 1780, Crystal Violet] |  |  |  | G-CSF secretion into media [4]: increased G-CSF secretion
O=c1[nH]c(=O)n([C@H]2C[C@H](O)[C@@H](CO)O2)cc1Br [Chemical 543, 5-Bromo-2′-deoxyuridine] |  |  | showed similar activity | 
Interferon-gamma: proteinaceous positive regulator (protein, UniProt P01579 24-161, looked up) Interferon gamma: QDPYVKEAENLKKYFNAGHSDVADNGTLFLGILKNWKEESDRKIMQSQIVSFYFKLFKNFKDDQSIQKSVETIKEDMNVKFFNSNKKKRDDFEKLTNYSVTDLNVQRKAIHELIQVMAELSPAAKTGKRKRSQMLFRG | increased G-CSF mRNA production |  |  | 
